IC50 data for 28 compounds are collected here from patent US7932270B2 (Cytokinetics, Inc., priority 2006, dated 2011).

The term IC50 denotes the concentration needed to halve the response being measured.

In this test the target is T1, chicken gizzard smooth muscle myosin subfragment-1 chemically crosslinked to cardiac or skeletal actin (Gallus gallus, UniProt P10587).
T1 construct: chicken gizzard smooth muscle myosin subfragment-1; from tissue; host or cells: chicken gizzard
T1 sequence (P02607 2-151): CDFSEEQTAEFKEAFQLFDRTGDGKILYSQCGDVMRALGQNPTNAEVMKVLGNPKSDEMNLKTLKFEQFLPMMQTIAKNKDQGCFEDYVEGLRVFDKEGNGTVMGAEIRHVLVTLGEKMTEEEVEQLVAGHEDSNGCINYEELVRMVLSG
T1 sequence (P10587 84-789): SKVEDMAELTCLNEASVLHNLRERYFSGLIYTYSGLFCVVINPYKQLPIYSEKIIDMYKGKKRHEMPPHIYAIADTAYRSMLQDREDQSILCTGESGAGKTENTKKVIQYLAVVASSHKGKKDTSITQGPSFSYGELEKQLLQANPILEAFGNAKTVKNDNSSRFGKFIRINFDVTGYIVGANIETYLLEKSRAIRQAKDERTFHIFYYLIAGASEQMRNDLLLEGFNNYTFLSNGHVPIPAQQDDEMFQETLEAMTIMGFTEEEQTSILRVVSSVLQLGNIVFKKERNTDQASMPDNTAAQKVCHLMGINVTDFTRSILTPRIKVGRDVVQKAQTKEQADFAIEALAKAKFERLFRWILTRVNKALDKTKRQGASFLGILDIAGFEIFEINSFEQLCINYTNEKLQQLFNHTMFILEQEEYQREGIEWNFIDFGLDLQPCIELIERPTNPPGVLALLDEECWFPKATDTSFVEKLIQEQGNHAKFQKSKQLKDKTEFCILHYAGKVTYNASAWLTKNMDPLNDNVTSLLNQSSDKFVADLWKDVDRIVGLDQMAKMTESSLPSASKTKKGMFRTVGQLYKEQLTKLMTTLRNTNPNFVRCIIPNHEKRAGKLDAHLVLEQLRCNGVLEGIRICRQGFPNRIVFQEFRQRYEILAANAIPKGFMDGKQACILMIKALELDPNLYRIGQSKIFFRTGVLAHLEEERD
The test is described as follows: Smooth muscle myosin ATPase dose response assay (pyruvate kinase/horseradish peroxidase/pyruvate oxidase-coupled, amplex red fluorescence). Type of test: biochemical. Particulars: read-out: IC50 Arithmetic Mean. The procedure, abridged: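 Readout is amplex red signal from coupled ATPase of actin-crosslinked gizzard myosin S1 (0.15 mM ATP, 12 mM K-PIPES, pH 7.00). IC50 is the half-maximal activity point of a four-parameter Hill fit.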
With `N#Cc1ccccc1-c1ccc(C(=O)NC[C@H]2CCC(=O)N2CCCCN)c(NCCc2cccc(F)c2)n1` [N-{[(2R)-1-(4-aminobutyl)-5-oxopyrrolidin-2-yl]methyl}(6-(2-cyanophenyl)-2-{[2-(3-fluorophenyl)ethyl]amino}(3-pyridyl))carboxamide], the IC50 stood at 51.7 nM.

Take `N#Cc1ccccc1-c1ccc(C(=O)NC[C@H]2CCCC(=O)N2CCCCN)c(NCCc2cccc(F)c2)n1` [N-{[(2R)-1-(4-aminobutyl)-6-oxo(2-piperidyl)]methyl}(6-(2-cyanophenyl)-2-{[2-(3-fluorophenyl)ethyl]amino}(3-pyridyl))carboxamide]: the IC50 came out at 32 nM.

As for `N#Cc1ccccc1-c1ccc(C(=O)NC[C@H]2CCN2C(=O)CCCO)c(NCCc2cccc(F)c2)n1` [N-{[(2R)-1-(4-hydroxybutanoyl)azetidin-2-yl]methyl}(6-(2-cyanophenyl)-2-{[2-(3-fluorophenyl)ethyl]amino}(3-pyridyl))carboxamide], the IC50 came to 60 nM.

As to `Cn1cc(-c2ccc(C(=O)NC[C@H]3CCCN3C(=O)CCCO)c(NCCc3cccc(F)c3)n2)cn1` [N-{[(2R)-1-(4-hydroxybutanoyl)pyrrolidin-2-yl]methyl}(2-{[2-(3-fluorophenyl)ethyl]amino}-6-(1-methylpyrazol-4-yl)(3-pyridyl))carboxamide], the IC50 was 1460 nM.

On to `O=C(NC[C@H]1CCCN1C(=O)CCCO)c1ccc(-c2cn[nH]c2)nc1NCCc1cccc(F)c1` [N-{[(2R)-1-(4-hydroxybutanoyl)pyrrolidin-2-yl]methyl}(2-{[2-(3-fluorophenyl)ethyl]amino}-6-pyrazol-4-yl(3-pyridyl))carboxamide], for which the IC50 was 963 nM.

Take `Cn1cc(-c2nc(NCCc3cccc(F)c3)c(C(=O)NC[C@H]3CCCN3C(=O)CCCO)cc2F)cn1` [N-{[(2R)-1-(4-hydroxybutanoyl)pyrrolidin-2-yl]methyl}(5-fluoro-2-{[2-(3-fluorophenyl)ethyl]amino}-6-(1-methylpyrazol-4-yl)(3-pyridyl))carboxamide]: the IC50 came to 245 nM.

In the case of `N#Cc1ccccc1-c1ccc(C(=O)NC[C@H]2CCCN2C(=O)CCCO)c(NCCc2cccc(F)c2)n1` [N-{[(2R)-1-(4-hydroxybutanoyl)pyrrolidin-2-yl]methyl}(6-(2-cyanophenyl)-2-{[2-(3-fluorophenyl)ethyl]amino}(3-pyridyl))carboxamide], the IC50 is 85 nM.

Consider `N#Cc1ccccc1-c1ccc(C(=O)NC[C@H]2CCCN2C(=O)CCCCN)c(NCCc2cccc(F)c2)n1` [N-{[(2R)-1-(5-aminopentanoyl)pyrrolidin-2-yl]methyl}(6-(2-cyanophenyl)-2-{[2-(3-fluorophenyl)ethyl]amino}(3-pyridyl))carboxamide], for which the IC50 was 99 nM.

As to `N#Cc1ccccc1-c1ccc(C(=O)NC[C@H]2CCC(=O)N2CCCCCN)c(NCCc2cccc(F)c2)n1` [N-{[(2R)-1-(5-aminopentyl)-5-oxopyrrolidin-2-yl]methyl}(6-(2-cyanophenyl)-2-{[2-(3-fluorophenyl)ethyl]amino}(3-pyridyl))carboxamide], the IC50 was determined as 39 nM.

With `N#Cc1ccccc1-c1ccc(C(=O)NC[C@H]2CCCCN2C(=O)[C@H](N)CN)c(NCCc2cccc(F)c2)n1` [N-{[(2R)-1-((2R)-2,3-diaminopropanoyl)(2-piperidyl)]methyl}(6-(2-cyanophenyl)-2-{[2-(3-fluorophenyl)ethyl]amino}(3-pyridyl))carboxamide], the IC50 was 161 nM.

For the compound `N#Cc1ccccc1-c1ccc(C(=O)NC[C@H]2CCCCN2C(=O)[C@H](N)CCN)c(NCCc2cccc(F)c2)n1` [N-{[(2R)-1-((2R)-2,4-diaminobutanoyl)(2-piperidyl)]methyl}(6-(2-cyanophenyl)-2-{[2-(3-fluorophenyl)ethyl]amino}(3-pyridyl))carboxamide], the IC50 came to 399 nM.

For `N#Cc1ccccc1-c1ccc(C(=O)NC[C@H]2CCCCN2C(=O)[C@H](N)CCCN)c(NCCc2cccc(F)c2)n1` [N-{[(2R)-1-((2R)-2,5-diaminopentanoyl)(2-piperidyl)]methyl}(6-(2-cyanophenyl)-2-{[2-(3-fluorophenyl)ethyl]amino}(3-pyridyl))carboxamide], the IC50 stood at 456 nM.

For the compound `N#Cc1ccccc1-c1ccc(C(=O)NC[C@H]2CCN2C(=O)[C@H](N)CO)c(NCCc2cccc(F)c2)n1` [N-{[(2R)-1-((2R)-2-amino-3-hydroxypropanoyl)azetidin-2-yl]methyl}(6-(2-cyanophenyl)-2-{[2-(3-fluorophenyl)ethyl]amino}(3-pyridyl))carboxamide], the IC50 came out at 83 nM.

Turning to `C[C@@H](N)C(=O)N1CCCC[C@@H]1CNC(=O)c1ccc(-c2ccccc2C#N)nc1NCCc1cccc(F)c1` [N-{[(2R)-1-((2R)-2-aminopropanoyl)(2-piperidyl)]methyl}(6-(2-cyanophenyl)-2-{[2-(3-fluorophenyl)ethyl]amino}(3-pyridyl))carboxamide], the half-maximal inhibitory concentration (IC50) came out at 261 nM.

Take `C[C@@H](N)C(=O)N1CCC[C@@H]1CNC(=O)c1ccc(-c2ccccc2C#N)nc1NCCc1cccc(F)c1` [N-{[(2R)-1-((2R)-2-aminopropanoyl)pyrrolidin-2-yl]methyl}(6-(2-cyanophenyl)-2-{[2-(3-fluorophenyl)ethyl]amino}(3-pyridyl))carboxamide]: the IC50 stood at 166 nM.

With `N#Cc1ccccc1-c1ccc(C(=O)NC[C@H]2CCCN2C(=O)[C@@H](N)CN)c(NCCc2cccc(F)c2)n1` [N-{[(2R)-1-((2S)-2,3-diaminopropanoyl)pyrrolidin-2-yl]methyl}(6-(2-cyanophenyl)-2-{[2-(3-fluorophenyl)ethyl]amino}(3-pyridyl))carboxamide], the IC50 was determined as 59 nM.

As for `N#Cc1ccccc1-c1ccc(C(=O)NC[C@H]2CCCCN2C(=O)[C@@H](N)CCCN)c(NCCc2cccc(F)c2)n1` [N-{[(2R)-1-((2S)-2,5-diaminopentanoyl)(2-piperidyl)]methyl}(6-(2-cyanophenyl)-2-{[2-(3-fluorophenyl)ethyl]amino}(3-pyridyl))carboxamide], the IC50 is 48 nM.

For `N#Cc1ccccc1-c1ccc(C(=O)NC[C@H]2CCN2C(=O)[C@@H](N)CCCN)c(NCCc2cccc(F)c2)n1` [N-{[(2R)-1-((2S)-2,5-diaminopentanoyl)azetidin-2-yl]methyl}(6-(2-cyanophenyl)-2-{[2-(3-fluorophenyl)ethyl]amino}(3-pyridyl))carboxamide], the IC50 was 274 nM.

As to `Cn1cc(-c2nc(NCCc3cccc(F)c3)c(C(=O)NC[C@H]3CCCN3C(=O)[C@@H](N)CCCN)cc2F)cn1` [N-{[(2R)-1-((2S)-2,5-diaminopentanoyl)pyrrolidin-2-yl]methyl}(5-fluoro-2-{[2-(3-fluorophenyl)ethyl]amino}-6-(1-methylpyrazol-4-yl)(3-pyridyl))carboxamide], the IC50 stood at 78 nM.

Take `N#Cc1ccccc1-c1ccc(C(=O)NC[C@H]2CCCN2C(=O)[C@@H](N)CCCN)c(NCCc2cccc(F)c2)n1` [N-{[(2R)-1-((2S)-2,5-diaminopentanoyl)pyrrolidin-2-yl]methyl}(6-(2-cyanophenyl)-2-{[2-(3-fluorophenyl)ethyl]amino}(3-pyridyl))carboxamide]: the IC50 came to 52 nM.

With `N#Cc1ccccc1-c1ccc(C(=O)NC[C@H]2CCN2C(=O)[C@@H](N)CO)c(NCCc2cccc(F)c2)n1` [N-{[(2R)-1-((2S)-2-amino-3-hydroxypropanoyl)azetidin-2-yl]methyl}(6-(2-cyanophenyl)-2-{[2-(3-fluorophenyl)ethyl]amino}(3-pyridyl))carboxamide], the IC50 amounted to 88 nM.

As to `Cn1cc(-c2nc(NCCc3cccc(F)c3)c(C(=O)NC[C@H]3CCCN3C(=O)[C@@H](N)CO)cc2F)cn1` [N-{[(2R)-1-((2S)-2-amino-3-hydroxypropanoyl)pyrrolidin-2-yl]methyl}(5-fluoro-2-{[2-(3-fluorophenyl)ethyl]amino}-6-(1-methylpyrazol-4-yl)(3-pyridyl))carboxamide], the IC50 amounted to 72 nM.

Turning to `N[C@@H](CO)C(=O)N1CCCC1CNC(=O)c1cc(F)c(-c2cc[nH]n2)nc1NCCc1cccc(F)c1` (stereo partly drawn) [N-{[(2R)-1-((2S)-2-amino-3-hydroxypropanoyl)pyrrolidin-2-yl]methyl}(5-fluoro-2-{[2-(3-fluorophenyl)ethyl]amino}-6-pyrazol-3-yl(3-pyridyl))carboxamide], the IC50 was 269 nM.

For `N[C@@H](CO)C(=O)N1CCC[C@@H]1CNC(=O)c1cc(F)c(-c2cn[nH]c2)nc1NCCc1cccc(F)c1` [N-{[(2R)-1-((2S)-2-amino-3-hydroxypropanoyl)pyrrolidin-2-yl]methyl}(5-fluoro-2-{[2-(3-fluorophenyl)ethyl]amino}-6-pyrazol-4-yl(3-pyridyl))carboxamide], the IC50 was 59 nM.

As to `N#Cc1ccccc1-c1ccc(C(=O)NC[C@H]2CCCN2C(=O)[C@@H](N)CO)c(NCCc2cccc(F)c2)n1` [N-{[(2R)-1-((2S)-2-amino-3-hydroxypropanoyl)pyrrolidin-2-yl]methyl}(6-(2-cyanophenyl)-2-{[2-(3-fluorophenyl)ethyl]amino}(3-pyridyl))carboxamide], the IC50 stood at 173 nM.

For the compound `COC[C@H](N)C(=O)N1CCC[C@@H]1CNC(=O)c1ccc(-c2ccccc2C#N)nc1NCCc1cccc(F)c1` [N-{[(2R)-1-((2S)-2-amino-3-methoxypropanoyl)pyrrolidin-2-yl]methyl}(6-(2-cyanophenyl)-2-{[2-(3-fluorophenyl)ethyl]amino}(3-pyridyl))carboxamide], the IC50 was found to be 193 nM.

As to `C[C@H](N)C(=O)N1CCCC[C@@H]1CNC(=O)c1ccc(-c2ccccc2C#N)nc1NCCc1cccc(F)c1` [N-{[(2R)-1-((2S)-2-aminopropanoyl)(2-piperidyl)]methyl}(6-(2-cyanophenyl)-2-{[2-(3-fluorophenyl)ethyl]amino}(3-pyridyl))carboxamide], the IC50 is 52 nM.

Take `C[C@H](N)C(=O)N1CCC[C@@H]1CNC(=O)c1cc(F)c(-c2cnn(C)c2)nc1NCCc1cccc(F)c1` [N-{[(2R)-1-((2S)-2-aminopropanoyl)pyrrolidin-2-yl]methyl}(5-fluoro-2-{[2-(3-fluorophenyl)ethyl]amino}-6-(1-methylpyrazol-4-yl)(3-pyridyl))carboxamide]: the IC50 was 99 nM.
